Measured values published in publication PMC3448615 (PLoS ONE, 2012).

Target: T1, Ox-R2 (orexin R2 receptor) (Homo sapiens, UniProt O43614)
T1 construct: gene HCRTR2
T1 sequence (O43614 1-444): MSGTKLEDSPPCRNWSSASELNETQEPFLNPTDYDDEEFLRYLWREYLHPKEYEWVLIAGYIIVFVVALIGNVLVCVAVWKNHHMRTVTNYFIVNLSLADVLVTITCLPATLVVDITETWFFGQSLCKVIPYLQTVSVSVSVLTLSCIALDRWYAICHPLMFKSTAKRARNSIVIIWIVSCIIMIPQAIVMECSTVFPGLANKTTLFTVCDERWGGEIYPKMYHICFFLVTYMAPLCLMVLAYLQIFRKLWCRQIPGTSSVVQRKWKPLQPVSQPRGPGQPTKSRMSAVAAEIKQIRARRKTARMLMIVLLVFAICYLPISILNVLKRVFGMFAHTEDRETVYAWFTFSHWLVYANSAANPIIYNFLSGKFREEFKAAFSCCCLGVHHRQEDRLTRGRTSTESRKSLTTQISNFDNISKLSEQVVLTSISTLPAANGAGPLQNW
Experiment: FLUO-3 calcium mobilization in HEK-293 cells, inhibition of […] orexin-B response
Format: cell-based

IC50: 332 ± 13 nM
SMILES: CNC(=O)[C@@H](c1ccccc1)N1CCc2cc(OC)c(OC)cc2[C@@H]1CCc1ccc(C(F)(F)F)cc1 [almorexant]
